{"source": "ChEMBL document CHEMBL3880421", "about": "“Indazole compounds and pharmaceutical compositions for inhibiting protein kinases, and methods for their use” (2003)", "data": [{"test": "Antiproliferative activity against VEGF-stimulated HUVEC cells assessed as reduction in cell viability at 10 nM preincubated for 1 hr followed by addition of VEGF measured after 72 hrs by MTT assay", "type": "functional", "details": "Homo sapiens", "units": {"inhibition at 0.01 µM": "%"}, "values": [{"smiles": "CC1(C)OC(=O)CC1C(=O)Nc1cccc(C(=O)c2ccc3c(/C=C/c4ccccc4)n[nH]c3c2)c1", "note": "(centres undefined)", "inhibition at 0.01 µM": 5}, {"smiles": "CC1(C)C(C(=O)Nc2cccc(C(=O)c3ccc4c(/C=C/c5ccccc5)n[nH]c4c3)c2)C1(C)C", "inhibition at 0.01 µM": 51}, {"smiles": "CC(C)=CC1C(C(=O)Nc2cccc(Nc3ccc4c(/C=C/c5ccccc5)n[nH]c4c3)c2)C1(C)C", "note": "(centres undefined)", "inhibition at 0.01 µM": 16}, {"smiles": "O=C(Cc1cc(F)cc(F)c1)Nc1cccc(Nc2ccc3c(/C=C/c4ccccc4)n[nH]c3c2)c1", "inhibition at 0.01 µM": 77}, {"smiles": "O=C(Cc1cccnc1)Nc1cccc(C(=O)c2ccc3c(/C=C/c4ccccc4)n[nH]c3c2)c1", "inhibition at 0.01 µM": 21}, {"smiles": "CCCN(CCC)CC(=O)Nc1cccc(C(=O)c2ccc3c(/C=C/c4ccccc4)n[nH]c3c2)c1", "inhibition at 0.01 µM": -2}, {"smiles": "CCC(C(=O)Nc1cccc(Oc2ccc3c(/C=C/c4ccccc4)n[nH]c3c2)c1)c1ccccc1C", "note": "(centres undefined)", "inhibition at 0.01 µM": 46}, {"smiles": "O=C(Nc1cccc(Nc2ccc3c(/C=C/c4ccccc4)n[nH]c3c2)c1)C1CCCO1", "note": "(centres undefined)", "inhibition at 0.01 µM": 23}, {"smiles": "C/C=C(\\C)C(=O)Nc1cccc(Nc2ccc3c(/C=C/c4ccccc4)n[nH]c3c2)c1", "inhibition at 0.01 µM": 98}, {"smiles": "O=C(c1cccc(NC(=O)C2CC3CC(O)C2C3)c1)c1ccc2c(/C=C/c3ccccc3)n[nH]c2c1", "note": "(centres undefined)", "inhibition at 0.01 µM": 64}, {"smiles": "CC(C)[C@@H](O)C(=O)Nc1cccc(Nc2ccc3c(/C=C/c4ccccc4)n[nH]c3c2)c1", "inhibition at 0.01 µM": 3}, {"smiles": "CC(C)C(=O)Nc1cccc(Oc2ccc3c(/C=C/c4ccccc4)n[nH]c3c2)c1", "inhibition at 0.01 µM": 57}, {"smiles": "O=C(c1cccc(NC(=O)C2C[C@H]3C[C@@H]2CCC3O)c1)c1ccc2c(/C=C/c3ccccc3)n[nH]c2c1", "note": "(some centres undefined)", "inhibition at 0.01 µM": 27}, {"smiles": "CC(C)=CC1C(C(=O)Nc2cccc(Oc3ccc4c(/C=C/c5ccccc5)n[nH]c4c3)c2)C1(C)C", "note": "(centres undefined)", "inhibition at 0.01 µM": 24}, {"smiles": "Cc1cc(C(=O)Nc2cccc(Nc3ccc4c(/C=C/c5ccccc5)n[nH]c4c3)c2)c(C)[nH]1", "inhibition at 0.01 µM": 76}, {"smiles": "COc1ccccc1/C=C/C(=O)Nc1cccc(C(=O)c2ccc3c(/C=C/c4ccccc4)n[nH]c3c2)c1", "inhibition at 0.01 µM": 47}, {"smiles": "O=C1CCC(C(=O)Nc2cccc(Nc3ccc4c(/C=C/c5ccccc5)n[nH]c4c3)c2)CC1", "inhibition at 0.01 µM": -7}, {"smiles": "O=C(Nc1cccc(Oc2ccc3c(/C=C/c4ccccc4)n[nH]c3c2)c1)C1CCOC1", "note": "(centres undefined)", "inhibition at 0.01 µM": 40}, {"smiles": "O=C(Nc1cccc(Oc2ccc3c(/C=C/c4ccccc4)n[nH]c3c2)c1)C1C[C@H]2C[C@@H]1CCC2O", "note": "(some centres undefined)", "inhibition at 0.01 µM": 52}, {"smiles": "CC(C)c1ccccc1C(=O)Nc1cccc(C(=O)c2ccc3c(/C=C/c4ccccc4)n[nH]c3c2)c1", "inhibition at 0.01 µM": 51}, {"smiles": "O=C(Cc1cc(F)ccc1F)Nc1cccc(Nc2ccc3c(/C=C/c4ccccc4)n[nH]c3c2)c1", "inhibition at 0.01 µM": 64}, {"smiles": "O=C(c1cccc(NC(=O)c2cccc3cc[nH]c23)c1)c1ccc2c(/C=C/c3ccccc3)n[nH]c2c1", "inhibition at 0.01 µM": 58}, {"smiles": "CC(C)(C)c1ccc(C(=O)Nc2cccc(Oc3ccc4c(/C=C/c5ccccc5)n[nH]c4c3)c2)o1", "inhibition at 0.01 µM": 52}, {"smiles": "CN1CCC=C(C(=O)Nc2cccc(C(=O)c3ccc4c(/C=C/c5ccccc5)n[nH]c4c3)c2)C1", "inhibition at 0.01 µM": 20}, {"smiles": "Cc1cc(C(=O)Nc2cccc(Oc3ccc4c(/C=C/c5ccccc5)n[nH]c4c3)c2)oc(=O)c1", "inhibition at 0.01 µM": 83}, {"smiles": "Cc1ccc(CCC(=O)Nc2cccc(Oc3ccc4c(/C=C/c5ccccc5)n[nH]c4c3)c2)cc1", "inhibition at 0.01 µM": 70}, {"smiles": "Cc1nc(S)sc1CC(=O)Nc1cccc(Oc2ccc3c(/C=C/c4ccccc4)n[nH]c3c2)c1", "inhibition at 0.01 µM": 45}, {"smiles": "CC(=O)c1ccc(C(=O)Nc2cccc(Nc3ccc4c(/C=C/c5ccccc5)n[nH]c4c3)c2)s1", "inhibition at 0.01 µM": 78}, {"smiles": "CC(C)(C)c1ccc(C(=O)Nc2cccc(Nc3ccc4c(/C=C/c5ccccc5)n[nH]c4c3)c2)o1", "inhibition at 0.01 µM": 60}, {"smiles": "CO[C@H](C(=O)Nc1cccc(Oc2ccc3c(/C=C/c4ccccc4)n[nH]c3c2)c1)c1ccccc1", "inhibition at 0.01 µM": 30}, {"smiles": "O=C(c1cccc(NC(=O)c2cc(=O)cco2)c1)c1ccc2c(/C=C/c3ccccc3)n[nH]c2c1", "inhibition at 0.01 µM": -13}, {"smiles": "O=C(CC1CC2CCC1C2)Nc1cccc(Nc2ccc3c(/C=C/c4ccccc4)n[nH]c3c2)c1", "note": "(centres undefined)", "inhibition at 0.01 µM": 87}, {"smiles": "O=C(/C=C/C(=O)Nc1cccc(Oc2ccc3c(/C=C/c4ccccc4)n[nH]c3c2)c1)NCC1CC1", "inhibition at 0.01 µM": 36}, {"smiles": "O=C(/C=C/C1C[C@H]2C=C[C@H]1C2)Nc1cccc(Nc2ccc3c(/C=C/c4ccccc4)n[nH]c3c2)c1", "note": "(some centres undefined)", "inhibition at 0.01 µM": 30}, {"smiles": "CC(C)(C)[C@@H](O)C(=O)Nc1cccc(Nc2ccc3c(/C=C/c4ccccc4)n[nH]c3c2)c1", "inhibition at 0.01 µM": 10}, {"smiles": "O=C(Cc1c(F)cccc1F)Nc1cccc(Nc2ccc3c(/C=C/c4ccccc4)n[nH]c3c2)c1", "inhibition at 0.01 µM": 40}, {"smiles": "O=C(Nc1cccc(Oc2ccc3c(/C=C/c4ccccc4)n[nH]c3c2)c1)C1=C[C@@H](O)[C@@H](O)[C@H](O)C1", "inhibition at 0.01 µM": 25}, {"smiles": "CC1(C)OC(=O)[C@H](CC(=O)Nc2cccc(C(=O)c3ccc4c(/C=C/c5ccccc5)n[nH]c4c3)c2)O1", "inhibition at 0.01 µM": 19}, {"smiles": "CC(C)(C)c1ccc(C(=O)Nc2cccc(C(=O)c3ccc4c(/C=C/c5ccccc5)n[nH]c4c3)c2)o1", "inhibition at 0.01 µM": 71}, {"smiles": "CC(=O)NC(C)(C)CC(=O)Nc1cccc(Nc2ccc3c(/C=C/c4ccccc4)n[nH]c3c2)c1", "inhibition at 0.01 µM": -9}, {"smiles": "C[C@@H]1[C@H](C)[C@H](C)C[C@@H]1C(=O)Nc1cccc(C(=O)c2ccc3c(/C=C/c4ccccc4)n[nH]c3c2)c1", "inhibition at 0.01 µM": 5}, {"smiles": "CN(C)C(=S)SCC(=O)Nc1cccc(Oc2ccc3c(/C=C/c4ccccc4)n[nH]c3c2)c1", "inhibition at 0.01 µM": 70}, {"smiles": "Cc1cc(C(=O)Nc2cccc(Nc3ccc4c(/C=C/c5ccccc5)n[nH]c4c3)c2)nn1C", "inhibition at 0.01 µM": 95}, {"smiles": "CN1CSCCC1C(=O)Nc1cccc(Oc2ccc3c(/C=C/c4ccccc4)n[nH]c3c2)c1", "note": "(centres undefined)", "inhibition at 0.01 µM": 23}, {"smiles": "CC(=O)N1CCCC1C(=O)Nc1cccc(Nc2ccc3c(/C=C/c4ccccc4)n[nH]c3c2)c1", "note": "(centres undefined)", "inhibition at 0.01 µM": -2}, {"smiles": "O=C(Nc1cccc(Oc2ccc3c(/C=C/c4ccccc4)n[nH]c3c2)c1)c1ccc(=O)oc1", "inhibition at 0.01 µM": 5}, {"smiles": "CC1(C)OC(=O)CC1C(=O)Nc1cccc(Nc2ccc3c(/C=C/c4ccccc4)n[nH]c3c2)c1", "note": "(centres undefined)", "inhibition at 0.01 µM": 16}, {"smiles": "O=C(Cn1ccc2ccccc21)Nc1cccc(Oc2ccc3c(/C=C/c4ccccc4)n[nH]c3c2)c1", "inhibition at 0.01 µM": 52}, {"smiles": "COc1cccc(CC(=O)Nc2cccc(Nc3ccc4c(/C=C/c5ccccc5)n[nH]c4c3)c2)c1", "inhibition at 0.01 µM": 34}, {"smiles": "Cc1ccc(C2(C(=O)Nc3cccc(C(=O)c4ccc5c(/C=C/c6ccccc6)n[nH]c5c4)c3)CC2)cc1", "inhibition at 0.01 µM": 0}, {"smiles": "O=C(c1cccc(NC(=O)[C@H]2CCC[C@H]2O)c1)c1ccc2c(/C=C/c3ccccc3)n[nH]c2c1", "inhibition at 0.01 µM": 39}, {"smiles": "Cn1cnc(CC(=O)Nc2cccc(Nc3ccc4c(/C=C/c5ccccc5)n[nH]c4c3)c2)c1", "inhibition at 0.01 µM": -17}, {"smiles": "CC1(C)OC(=O)CC1C(=O)Nc1cccc(Oc2ccc3c(/C=C/c4ccccc4)n[nH]c3c2)c1", "note": "(centres undefined)", "inhibition at 0.01 µM": 25}, {"smiles": "O=C(Nc1cccc(C(=O)c2ccc3c(/C=C/c4ccccc4)n[nH]c3c2)c1)C1=C[C@@H](O)[C@@H](O)[C@H](O)C1", "inhibition at 0.01 µM": -20}, {"smiles": "COC1CCCC(C(=O)Nc2cccc(Oc3ccc4c(/C=C/c5ccccc5)n[nH]c4c3)c2)C1", "note": "(centres undefined)", "inhibition at 0.01 µM": 91}, {"smiles": "O=C(CC1=CCCCC1)Nc1cccc(Nc2ccc3c(/C=C/c4ccccc4)n[nH]c3c2)c1", "inhibition at 0.01 µM": 81}, {"smiles": "O=C(Nc1cccc(C(=O)c2ccc3c(/C=C/c4ccccc4)n[nH]c3c2)c1)c1ccc(=O)oc1", "inhibition at 0.01 µM": -62}, {"smiles": "CC(C)CC(O)C(=O)Nc1cccc(Oc2ccc3c(/C=C/c4ccccc4)n[nH]c3c2)c1", "note": "(centres undefined)", "inhibition at 0.01 µM": 69}, {"smiles": "CC(C)CC(=O)C(=O)Nc1cccc(Nc2ccc3c(/C=C/c4ccccc4)n[nH]c3c2)c1", "inhibition at 0.01 µM": 11}, {"smiles": "C/C(=C\\C(=O)Nc1cccc(Oc2ccc3c(/C=C/c4ccccc4)n[nH]c3c2)c1)c1ccccc1C", "inhibition at 0.01 µM": 52}, {"smiles": "O=C(Nc1cccc(Oc2ccc3c(/C=C/c4ccccc4)n[nH]c3c2)c1)c1cccc2cc[nH]c12", "inhibition at 0.01 µM": 68}, {"smiles": "CC(C)=CC1C(C(=O)Nc2cccc(C(=O)c3ccc4c(/C=C/c5ccccc5)n[nH]c4c3)c2)C1(C)C", "note": "(centres undefined)", "inhibition at 0.01 µM": 3}, {"smiles": "Cc1cc(C(=O)Nc2cccc(Nc3ccc4c(/C=C/c5ccccc5)n[nH]c4c3)c2)oc(=O)c1", "inhibition at 0.01 µM": -8}, {"smiles": "CC(C)=NOC(C)C(=O)Nc1cccc(Oc2ccc3c(/C=C/c4ccccc4)n[nH]c3c2)c1", "note": "(centres undefined)", "inhibition at 0.01 µM": 80}, {"smiles": "O=C1C[C@H](C(=O)Nc2cccc(Oc3ccc4c(/C=C/c5ccccc5)n[nH]c4c3)c2)NC(=O)N1", "inhibition at 0.01 µM": -6}, {"smiles": "O=C1NCC(C(=O)Nc2cccc(Oc3ccc4c(/C=C/c5ccccc5)n[nH]c4c3)c2)N1", "note": "(centres undefined)", "inhibition at 0.01 µM": 40}, {"smiles": "Cc1ccc(C2(C(=O)Nc3cccc(Nc4ccc5c(/C=C/c6ccccc6)n[nH]c5c4)c3)CC2)cc1", "inhibition at 0.01 µM": 2}, {"smiles": "O=C(Nc1cccc(Nc2ccc3c(/C=C/c4ccccc4)n[nH]c3c2)c1)C1CC2C=CC1CC2", "note": "(centres undefined)", "inhibition at 0.01 µM": 6}, {"smiles": "CC1(C)OC(=O)[C@H](CC(=O)Nc2cccc(Oc3ccc4c(/C=C/c5ccccc5)n[nH]c4c3)c2)O1", "inhibition at 0.01 µM": 22}, {"smiles": "O=C(Nc1cccc(Oc2ccc3c(/C=C/c4ccccc4)n[nH]c3c2)c1)C(=O)C1=CCCCC1", "inhibition at 0.01 µM": 57}, {"smiles": "CN1CCC=C(C(=O)Nc2cccc(Nc3ccc4c(/C=C/c5ccccc5)n[nH]c4c3)c2)C1", "inhibition at 0.01 µM": 0}, {"smiles": "O=C(Cc1cccnc1)Nc1cccc(Nc2ccc3c(/C=C/c4ccccc4)n[nH]c3c2)c1", "inhibition at 0.01 µM": 43}, {"smiles": "O=C(CC1CC2CCC1C2)Nc1cccc(Oc2ccc3c(/C=C/c4ccccc4)n[nH]c3c2)c1", "note": "(centres undefined)", "inhibition at 0.01 µM": 78}, {"smiles": "O=C(Nc1cccc(Oc2ccc3c(/C=C/c4ccccc4)n[nH]c3c2)c1)C1C[C@H]2C=C[C@H]1C2", "note": "(some centres undefined)", "inhibition at 0.01 µM": 82}, {"smiles": "O=C(Nc1cccc(Oc2ccc3c(/C=C/c4ccccc4)n[nH]c3c2)c1)C1CC2C=CCC(C2)C1", "note": "(centres undefined)", "inhibition at 0.01 µM": 17}, {"smiles": "CC(=O)N1CCCC1C(=O)Nc1cccc(C(=O)c2ccc3c(/C=C/c4ccccc4)n[nH]c3c2)c1", "note": "(centres undefined)", "inhibition at 0.01 µM": 10}, {"smiles": "O=C(CCN1CCCCC1)Nc1cccc(Oc2ccc3c(/C=C/c4ccccc4)n[nH]c3c2)c1", "inhibition at 0.01 µM": 52}, {"smiles": "Cc1cc(C(=O)Nc2cccc(Oc3ccc4c(/C=C/c5ccccc5)n[nH]c4c3)c2)c(C)[nH]1", "inhibition at 0.01 µM": 52}, {"smiles": "O=C(Nc1cccc(Nc2ccc3c(/C=C/c4ccccc4)n[nH]c3c2)c1)C1CCOC1", "note": "(centres undefined)", "inhibition at 0.01 µM": -3}]}]}
